Source: patent publication US20240353393A1, “LABEL FREE DRUG AND TISSUE BIOPSY SCREENING/DIAGNOSTIC IN CANCER” (University of Virginia Patent Foundation, priority 2023, published 2024)

What was measured:
Format in all cases: cell-based
AA prostate cancer cells = assay: FLIRR vs intensity-based redox ratio, CoCl2 pretreatment and glucose stimulation
PCa cells [1] = assay: FLIRR (NAD(P)H-a2%/FAD-a1%) by FLIM after doxorubicin treatment; conditions: as early as 15 mins of treatment, real time, before induction of apoptosis
From the text: The enzyme-bound fractions of NAD (P) H (a2%) and FAD (a1%) and their lifetimes (tm) are used to quantify these metabolic changes, in particular with our novel NAD (P) H-a2%/FAD-a1% FLIM-based redox ratio. The commonly used intensity-based redox ratio [NAD (P) H/FAD], based predominantly on signals driven by mitochondrial OXPHOS is defined as a reduction of this ratio, due to the conversion of fluorescent NAD (P) H to non-fluorescent NAD+ and conversion of non-fluorescent FADH2 to fluorescent FAD. […]
FLIM instrumentation can include a 3-channel FLIM imaging system of a Zeiss LSM 780 confocal/multiphoton (MP) laser scanning system coupled to the Zeiss inverted epi-fluorescence microscope, which is controlled with the ZEN software (Carl Zeiss, Inc). […] The fluorescence decay per pixel was measured using 3-channel SPC-150 TCSPC board (Becker & Hickl, GmbH) where the SPCM software was used to acquire the FLIM data (v. 8.91). […]
The ratio of the bound NAD (P) H to bound FAD, the Fluorescence Lifetime Imaging Redox Ratio (FLIRR), is an optical biomarker to determine a cell's primary metabolic pathway with higher FLIRR values often consistent with a shift towards oxidative phosphorylation and lower values often associated with a shift towards glycolysis.

PCa cells [2] = assay: Trp-NAD(P)H FRET interaction by FLIM-FRET after doxorubicin treatment; conditions: as early as 15 mins of treatment, real time, before induction of apoptosis
From the text: Auto-fluorescent biomarker, tryptophan (Trp), has also been linked to cancer investigations. Trp, an essential amino acid, is a precursor of niacin, which in turn is a precursor of NAD (P) H. Increased Trp catabolismand increased indoleamine 2,3-dioxygenase (IDO) activity in the kynurenine pathway are linked to cancer development and progression. Therefore, probing Trp is clinically relevant. In general, Trp fluorescence intensity and lifetime mainly provide information on the protein composition, protein structure of which they are a part of and changes in overall cellular microenvironment. Trp is therefore used as a marker for protein abundance. […] In FLIM-FRET measurements, FRET events are identified if there is reduction in the donor lifetime, because of quenching of its fluorescence in the presence of the acceptor. […] The efficiency of energy transfer or E % is calculated from the following equation E=1-τm/τ0, where τm is the mean lifetime of Trp in cells and τ0=3.1 ns of unquenched Trp lifetime measured from Trp in solution. […]
FLIM instrumentation can include a 3-channel FLIM imaging system of a Zeiss LSM 780 confocal/multiphoton (MP) laser scanning system coupled to the Zeiss inverted epi-fluorescence microscope, which is controlled with the ZEN software (Carl Zeiss, Inc). […]

Row | Compound | NADH-a2%/FAD-a1% ratio (AA prostate cancer cells) | FLIRR of metabolic co-enzymes NAD(P)H & FAD (PCa cells [1]) | Trp-NAD(P)H FRET interactions (PCa cells [2])
1 | [Cl-].[Cl-].[Co+2] [CoCl2] | decrease | – | –
2 | COc1cccc2c1C(=O)c1c(O)c3c(c(O)c1C2=O)C[C@@](O)(C(=O)CO)C[C@@H]3O[C@H]1C[C@H](N)[C@H](O)[C@H](C)O1 [doxorubicin] | – | increase | increase
